Measured values published in the supplement of paper PMC9663587.

Columns and labels:
[1] = compound: T1, CCOc1cc2ncc(C#N)c(Nc3ccc(OCc4ccccn4)c(Cl)c3)c2cc1NC(=O)/C=C/CN(C)C [Neratinib/HKI272]; experiment: GR value, 72 h; higher = faster growth (1 = untreated, <0 = killing);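 further: breast cancer and non-malignant breast epithelial lines, nine half-log doses, viable cells counted by Hoechst and LIVE/DEAD dye imaging versus time-zero plates and DMSO controls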
[2] = compound: T2, CN1CC[C@H](c2c(O)cc(O)c3c(=O)cc(-c4ccccc4Cl)oc23)[C@H](O)C1 [Flavopiridol]; experiment: as above
[3] = compound: CCc1cnn2c(NCc3ccc[n+]([O-])c3)cc(N3CCCC[C@H]3CCO)nc12; experiment: increase in dead-cell fraction, 72 h; higher = more death;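 further: breast cancer cell lines in 384-well plates, stained with Hoechst plus LIVE/DEAD far red dye and imaged, cells above an LDR intensity threshold counted dead, Hoechst-negative corpses included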
[4] = compound: CN(C)C/C=C/C(=O)Nc1ccc(C(=O)Nc2cccc(Nc3ncc(Cl)c(-c4c[nH]c5ccccc45)n3)c2)cc1 [THZ1]; experiment: as above
[5] = compound: T1, Neratinib/HKI272; experiment: as above
[6] = compound: CC(=O)c1c(C)c2cnc(Nc3ccc(N4CCNCC4)cn3)nc2n(C2CCCC2)c1=O; experiment: as above
[7] = compound: C=CC(=O)Nc1ccc(C(=O)Nc2[nH]nc3c2CN(C(=O)N[C@H](CN(C)C)c2ccccc2)C3(C)C)cc1 [YKL-5-124]; experiment: as above
[8] = compound: CC(=O)c1c(C)c2cnc(Nc3ccc(N4CCN(CCOCCOCCOCCNC(=O)COc5cccc6c5C(=O)N(C5CCC(=O)NC5=O)C6=O)CC4)cn3)nc2n(C2CCCC2)c1=O [BSJ-03-123]; experiment: as above
[9] = compound: CN(C)C/C=C/C(=O)Nc1ccc(C(=O)N2CCC[C@@H](Nc3ncc(Cl)c(-c4c[nH]c5ccccc45)n3)C2)cc1 [THZ531]; experiment: as above
[10] = compound: CN(C)C(=O)c1cc2cnc(Nc3ccc(N4CCNCC4)cn3)nc2n1C1CCCC1 [LEE011/Ribociclib]; experiment: as above
[11] = compound: T2, Flavopiridol; experiment: as above
[12] = compound: CCN1CCN(Cc2ccc(Nc3ncc(F)c(-c4cc(F)c5nc(C)n(C(C)C)c5c4)n3)nc2)CC1; experiment: as above

## MDAMB453
[1]; 0.0003162 µM
  GR value: 0.988 GR
[1]; 0.001 µM
  GR value: 0.937 GR
[1]; 0.003162 µM
  GR value: 0.825 GR
[1]; 0.01 µM
  GR value: 0.596 GR
[1]; 0.03162 µM
  GR value: 0.44 GR
[1]; 0.1 µM
  GR value: 0.366 GR
[1]; 0.3162 µM
  GR value: 0.139 GR
[1]; 1 µM
  GR value: -0.0602 GR
[1]; 3.162 µM
  GR value: -0.339 GR
[2]; 0.0001 µM
  GR value: 1.06 GR
[2]; 0.0003162 µM
  GR value: 1.04 GR
[2]; 0.001 µM
  GR value: 0.944 GR
[2]; 0.003162 µM
  GR value: 0.819 GR
[2]; 0.01 µM
  GR value: 0.916 GR
[2]; 0.03162 µM
  GR value: 1.05 GR
[2]; 0.1 µM
  GR value: 0.671 GR
[2]; 0.3162 µM
  GR value: 0.0173 GR
[2]; 1 µM
  GR value: -0.186 GR
[3]; 0.0001 µM
  increase in dead-cell fraction: 0.0187
[3]; 0.0003162 µM
  increase in dead-cell fraction: -0.0038
[3]; 0.001 µM
  increase in dead-cell fraction: -0.0082
[3]; 0.003162 µM
  increase in dead-cell fraction: -0.004
[3]; 0.01 µM
  increase in dead-cell fraction: 0.0474
[3]; 0.03162 µM
  increase in dead-cell fraction: 0.251
[3]; 0.1 µM
  increase in dead-cell fraction: 0.309
[3]; 0.3162 µM
  increase in dead-cell fraction: 0.286
[3]; 1 µM
  increase in dead-cell fraction: 0.318
[4]; 0.0001 µM
  increase in dead-cell fraction: 0.0006
[4]; 0.0003162 µM
  increase in dead-cell fraction: -0.0024
[4]; 0.001 µM
  increase in dead-cell fraction: -0.0042
[4]; 0.003162 µM
  increase in dead-cell fraction: 0.0021
[4]; 0.01 µM
  increase in dead-cell fraction: 0.0161
[4]; 0.03162 µM
  increase in dead-cell fraction: 0.0525
[4]; 0.1 µM
  increase in dead-cell fraction: 0.133
[4]; 0.3162 µM
  increase in dead-cell fraction: 0.101
[4]; 1 µM
  increase in dead-cell fraction: 0.122
[5]; 0.0003162 µM
  increase in dead-cell fraction: 0.0316
[5]; 0.001 µM
  increase in dead-cell fraction: 0.0419
[5]; 0.003162 µM
  increase in dead-cell fraction: 0.0613
[5]; 0.01 µM
  increase in dead-cell fraction: 0.0661
[5]; 0.03162 µM
  increase in dead-cell fraction: 0.119
[5]; 0.1 µM
  increase in dead-cell fraction: 0.106
[5]; 0.3162 µM
  increase in dead-cell fraction: 0.177
[5]; 1 µM
  increase in dead-cell fraction: 0.212
[5]; 3.162 µM
  increase in dead-cell fraction: 0.348
[6]; 0.0003162 µM
  increase in dead-cell fraction: 0.0265
[6]; 0.001 µM
  increase in dead-cell fraction: 0.0374
[6]; 0.003162 µM
  increase in dead-cell fraction: 0.016
[6]; 0.01 µM
  increase in dead-cell fraction: 0.0502
[6]; 0.03162 µM
  increase in dead-cell fraction: 0.0578
[6]; 0.1 µM
  increase in dead-cell fraction: 0.115
[6]; 0.3162 µM
  increase in dead-cell fraction: 0.124
[6]; 1 µM
  increase in dead-cell fraction: 0.123
[6]; 3.162 µM
  increase in dead-cell fraction: 0.117
[7]; 0.001 µM
  increase in dead-cell fraction: 0.007
[7]; 0.003162 µM
  increase in dead-cell fraction: 0.013
[7]; 0.01 µM
  increase in dead-cell fraction: 0.0243
[7]; 0.03162 µM
  increase in dead-cell fraction: 0.0344
[7]; 0.1 µM
  increase in dead-cell fraction: 0.0489
[7]; 0.3162 µM
  increase in dead-cell fraction: 0.033
[7]; 1 µM
  increase in dead-cell fraction: 0.0346
[7]; 3.162 µM
  increase in dead-cell fraction: 0.0296
[7]; 10 µM
  increase in dead-cell fraction: 0.275
[8]; 0.001 µM
  increase in dead-cell fraction: -0.0008
[8]; 0.003162 µM
  increase in dead-cell fraction: -0.0002
[8]; 0.01 µM
  increase in dead-cell fraction: -0.0018
[8]; 0.03162 µM
  increase in dead-cell fraction: 0.0081
[8]; 0.1 µM
  increase in dead-cell fraction: 0.0016
[8]; 0.3162 µM
  increase in dead-cell fraction: 0.0031
[8]; 1 µM
  increase in dead-cell fraction: 0.0138
[8]; 3.162 µM
  increase in dead-cell fraction: 0.007
[8]; 10 µM
  increase in dead-cell fraction: 0.0618
[9]; 0.0001 µM
  increase in dead-cell fraction: 0.0012
[9]; 0.0003162 µM
  increase in dead-cell fraction: 0.0037
[9]; 0.001 µM
  increase in dead-cell fraction: 0.0069
[9]; 0.003162 µM
  increase in dead-cell fraction: 0.0027
[9]; 0.01 µM
  increase in dead-cell fraction: 0.0057
[9]; 0.03162 µM
  increase in dead-cell fraction: 0.0394
[9]; 0.1 µM
  increase in dead-cell fraction: 0.16
[9]; 0.3162 µM
  increase in dead-cell fraction: 0.187
[9]; 1 µM
  increase in dead-cell fraction: 0.157
[10]; 0.001 µM
  increase in dead-cell fraction: 0.0026
[10]; 0.003162 µM
  increase in dead-cell fraction: 0.0128
[10]; 0.01 µM
  increase in dead-cell fraction: 0.0136
[10]; 0.03162 µM
  increase in dead-cell fraction: 0.016
[10]; 0.1 µM
  increase in dead-cell fraction: 0.025
[10]; 0.3162 µM
  increase in dead-cell fraction: 0.0275
[10]; 1 µM
  increase in dead-cell fraction: 0.0212
[10]; 3.162 µM
  increase in dead-cell fraction: 0.0344
[10]; 10 µM
  increase in dead-cell fraction: 0.05
[11]; 0.0001 µM
  increase in dead-cell fraction: -0.0017
[11]; 0.0003162 µM
  increase in dead-cell fraction: -0.0022
[11]; 0.001 µM
  increase in dead-cell fraction: -0.0038
[11]; 0.003162 µM
  increase in dead-cell fraction: -0.0016
[11]; 0.01 µM
  increase in dead-cell fraction: -0.0001
[11]; 0.03162 µM
  increase in dead-cell fraction: -0.0034
[11]; 0.1 µM
  increase in dead-cell fraction: 0.0018
[11]; 0.3162 µM
  increase in dead-cell fraction: 0.0317
[11]; 1 µM
  increase in dead-cell fraction: 0.168
[12]; 0.001 µM
  increase in dead-cell fraction: 0.0151
[12]; 0.003162 µM
  increase in dead-cell fraction: 0.0243
[12]; 0.01 µM
  increase in dead-cell fraction: 0.117
[12]; 0.03162 µM
  increase in dead-cell fraction: 0.134
[12]; 0.1 µM
  increase in dead-cell fraction: 0.124
[12]; 0.3162 µM
  increase in dead-cell fraction: 0.104
[12]; 1 µM
  increase in dead-cell fraction: 0.15
[12]; 3.162 µM
  increase in dead-cell fraction: 0.147
[12]; 10 µM
  increase in dead-cell fraction: 0.626
